# Measured values reported in patent US6812237B2, “N-substituted peptidyl nitriles as cysteine cathepsin inhibitors” (Novartis AG, priority 2000, dated 2004).
# Columns and labels:
# [1] = target: recombinant human cathepsin B (Homo sapiens, UniProt P07858); assay: in vitro cathepsin B assay; assay type: biochemical; settings: Z-Arg-Arg-AMC substrate, pH 5.8 phosphate buffer, fluorescence at 20 minutes
# Experimental: The cathepsin inhibitory effects of the compound of the invention can be determined in vitro by measuring the inhibition of e.g. recombinant human cathepsins B, L and S. The buffer used in the assays is a 0.1 M pH 5.8 phosphate buffer containing EDTA (1.33 mM), DTT (2.7 mM) and Brij (0.03%).
# The in vitro assays are carried out as follows:
# To a microtiter well is added 100 uL of a 20 uM solution of inhibitor in assay buffer followed by 50 uL of a 6.4 mM solution of Z—Arg—Arg—AMC substrate (Peptides International) in assay buffer. After mixing, 50 uL of a 0.544 nM solution of recombinant human cathepsin B in assay buffer is added to the well, yielding a final inhibitor concentration of 10 uM. Enzyme activity is determined by measuring fluorescence of the liberated aminomethylcoumarin at […] using 380 nm excitation, at 20 minutes. % Enzyme inhibition is determined by comparison of this activity to that of a solution containing no inhibitor. Compounds are subsequently subjected to a dose response curve analysis to determine IC50 values.
melting point,IC50 [1],SMILES
86 to 88 °C,–,"C=CCOC(=O)c1cccc(COCC(C#N)NC(=O)[C@H](Cc2cccc(C)c2)Nc2ccc(F)cc2)c1 (stereo in doubt) [Example 5, N-[2-[3-(allyloxycarbonyl)-benzyloxy]-1(S)-cyanoethyl]-3-methyl-Nα-(4-fluorophenyl)-L-phenylalaninamide]"
135 to 137 °C,~100 nM,"Cc1cccc(C[C@H](Nc2ccccc2)C(=O)NC(C#N)COCc2cccc(C(=O)O)c2)c1 (stereo in doubt) [Example 6, N-[2-(3-Carboxy-benzyloxy)-1(S)-cyanoethyl]-3-methyl-Nα-phenyl-L-phenylalaninamide]"
80 to 83 °C,–,"N#C[C@@H](COCc1cccc(C(=O)O)c1)NC(=O)C1(Nc2ccccc2)CCCCC1 [Example 14 (a), N-[2-(3-carboxybenzyloxy)-1-(S)-cyanoethyl]-1-(phenylamino)-cyclohexanecarboxamide]"
169 to 170 °C,–,"N#CCNC(=O)CN(c1ccccc1)C1Cc2ccccc2C1 [Example 14 (b), N-(cyanomethyl)-Nα-(phenyl)-indan-2-yl-glycine-amide]"
